Data taken from publication PMC8577775, “Small molecule allosteric inhibitors of RORγt block Th17-dependent inflammation and associated gene expression in vivo” (PLoS ONE, 2021).

Columns and labels:
[1] = system: IMQ-induced skin inflammation in Balb/c mice; test: Imiquimod (IMQ)-induced skin inflammation model; type: in vivo, mouse; conditions: for ear thickness: IMQ vehicle 0.21 ± 0.03 mm
Method: For IMQ-induced skin inflammation, wild-type (WT) Balb/c female mice, 5–8 weeks of age, were purchased from Charles River Laboratories. All mice were housed in pathogen-free conditions at Bristol Myers Squibb (Cambridge, MA). Aldara cream containing 5% imiquimod (Patterson Veterinary Supply, Inc; Devens, MA) was applied to the ears daily (11–14 mg) for 3 days. Mice were treated twice daily (BID) on days 1–4 per os (PO) with vehicle (0.5% methylcellulose/0.25% Tween80) or RORγt inhibitors at indicated doses immediately prior to Aldara application. Ear thickness was measured using micro-calipers. Tissues were harvested on day 4, 2 hours following the last compound dose. Naïve mice are completely untreated, receiving neither control vehicle for IMQ nor Compound.
For RNA isolation & gene expression, ears are collected on day 4 in RNAlater (Qiagen) and stored at 4°C until processed. Ears were homogenized using Procellys 24 homogenizer & hard tissue homogenizing beads (Bertin Instruments), 2 cycles of 30 seconds @ 6000 rpm in RLT lysis buffer according to manufacturer’s instructions. RNA was isolated using RNAeasy Plus MiniPrep columns (Qiagen) and cDNA generated using SuperScript VILO cDNA Synthesis kit (Invitrogen). Gene expression was quantified using TaqMan Fast Master Mix & and TaqMan FAM-MGB probe sets (Applied Biosystems): Gapdh, Mm99999915_g1, Il17a, Mm00439618_m1, Il17f, Mm00521423_m1, Il22, Mm01226722_g1 & Bclxl, Mm00437783_m1. QPCR reactions were run on QuantStudio 7 instrument. Relative quantification and fold changes were calculated using ddCT values against Gapdh and normalized to control-treated animals. For PDAC xenografts, RNA was isolated from tumor sections using Qiagen RNeasy kit (cat#74106), then cDNA was prepared using 2 μg of RNA and the high capacity RNA to cDNA kit (Applied Biosystems, cat#4387406) as per manufacturer’s instructions. Biomarker expression was determined using Taqman gene expression probes (S1 Table) and Universal master mix (ThermoFisher Scientific cat#4305719) with expression levels normalized to Gapdh.
For cytokine production, ears are removed, split in half using forceps and floated, dermis side-down, in DMEM media (Gibco) and incubated at 37° C for 24 hours. Following incubation, media was removed and cytokine production assessed by Luminex assay (Bio-Rad Laboratories).

[2] = system: Bclxl expression in the thymus; test: Bclxl expression in thymus after oral dosing (QPCR); type: in vivo, mouse; conditions: 100 mg/kg PO, C57Bl/6 female mice; S5 Fig
Method: Supplementary file pone.0248034.s009.tif: S5 Fig RORγt inhibitors reduce Bclxl expression in thymus of rodents. C57Bl/6 female mice were dosed PO with 100 mg/kg Compound 1, 2 or 3. Thymic tissues were collected from separate cohorts at 2, 8, 16 and 24 hours post-dose (n = 3 mice/timepoint). RNA was extracted from thymic tissues and Bclxl expression measured by QPCR. […] Time zero (‘0’) used as normalization timepoint and set to 1.0 RQ and mean set at 100% for % inhibition calculation. One-way ANOVA with Bonferroni correction for multiple comparisons used for statistical significance calculations. (TIF) Click here for additional data file.

[3] = system: MOG35-55-induced EAE in C57BL/6 mice; test: Experimental autoimmune encephalomyelitis (EAE) model; type: in vivo, mouse; conditions: 3 mg/kg QD
Method: EAE studies were conducted at Hooke Laboratories. WT female C57BL/6 mice (Taconic Labs) 9 weeks of age were inoculated on day 0 with MOG35-55 peptide (Hooke Kit™ MOG35-55/CFA Emulsion PTX) (EK-2110, Hooke Laboratories, Lawrence MA) followed by intraperitoneal (IP) injections of pertussis toxin at 2 and 24 hours. Mice were treated twice daily (BID, starting at day 1) per os (PO) with vehicle (0.5% MC/0.25% Tween80) or RORγt inhibitors at indicated doses. FTY720 (Gilenya) was dosed once daily (QD) at 3 mg/kg starting at day 1. EAE clinical scores were evaluated daily and scored from 0–5 according to Hooke Lab EAE scoring guidelines http://hookelabs.com/services/cro/eae/MouseEAEscoring.html. Mean clinical scores & body weight loss were assessed and statistical significance calculated by Wilcoxon’s non-parametric or 2-tailed Student’s t-test, respectively. All studies performed were approved in accordance with the Institutional Animal Care and Use Committee of Bristol Myers Squibb and complied according to Bristol Myers Squibb guidelines.

[4] = system: psoriasis patients; design: method as in PMID 29936103; conditions: cited from earlier work
[5] = system: PDAC PDO model T031P; test: In vitro organoid formation assay (CellTiter-Glo 3D); type: cell-based; conditions: Homo sapiens, PDO model not named in the sentence (Fig 8B: T020P and T031P)
Method: Patient derived organoids were established as previously described. Briefly, PDX tumor chunks were minced then enzymatically digested into single cells by using a tumor dissociation Kit (Miltenyi, Cat# 130-095-929). Mouse and human cells were separated through magnetic separation, and isolated tumor cells were cultured on Matrigel-coated dishes. Organoid cultures were maintained by growing on Matrigel in human complete maintenance media: Advanced DMEM/F12 media (Life Technology, Cat# 12634028), 10 mM HEPES (Life Technology, Cat# 15630–080), 1X Glutamax (Life Technology, Cat# 35050–061), 1X Antibiotic-Antimycotic (Life Technology, Cat# 15240–062), 10 mM Nicotinamide (Sigma-Aldrich, Cat# N0636-500G), 250 ng/mL R-Spondin-1 (Peprotech, Cat# 120–38), 100 ng/mL Noggin (Peprotech, Cat# 120-10C), 50 ng/mL EGF (Peprotech, Cat# AF-100-15), 100 ng/mL FGF10 (Peprotech, Cat# 100–26), […] (Sigma-Aldrich, Cat# G9020), 500 nM A83-01 (Sigma, Cat# SML0788), 20 μM Y-27632 (LC Laboratories, Cat# Y-5301), 1X B27 (Life Technology, Cat# 12587010), 10 ng/mL Wnt3a (R&D Systems, Cat# 5036-WN-010), 0.1% Methylcelluose (R&D Systems, Cat# HSC001) and Plasmocin (Invivogen, Cat# Ant-mpp) and were passaged every 10–14 days. Organoids were isolated from Matrigel (Corning, Cat# 08-774-406) in a cell recovery solution (Corning, Cat# CB-40253). Spheroid clusters were then dissociated into a single cell suspension with TrypLE (Gibco, Cat# 12605). […]
(§1) Organoids were isolated and dissociated as described above. Cell numbers were counted by trypan blue exclusion and 5000 cells per well were plated on the Matrigel coated and pre-warmed 96-well plates. […] 100 μl of CellTiter-Glo® 3D reagent (Promega cat# G9682) was added to each well after desired time points and luminescence signal measured after 30 minutes.
(§2) Supplementary file pone.0248034.s010.tif: S6 Fig Schematic of Patient-derived organoids (PDO) growth & formation assays. […] After the indicated treatment schedule organoid growth or formation was assessed by CTG assay. […]

[6] = system: PDAC PDO model T020P; test: In vitro organoid growth assay (CellTiter-Glo 3D), T020P; type: cell-based, human; conditions: Homo sapiens, 72 h; treated 3 days post-plating; T020P
Method: (§3) Patient derived organoids were established as previously described. Briefly, PDX tumor chunks were minced then enzymatically digested into single cells by using a tumor dissociation Kit (Miltenyi, Cat# 130-095-929). Mouse and human cells were separated through magnetic separation, and isolated tumor cells were cultured on Matrigel-coated dishes. […]
as §1, §2

[7] = system: human and mouse xenograft tumor growth; design: method as in PMID 30955884; conditions: modulation of RORγt activity; cited from earlier work
[8] = system: PDAC PDO model T031P; test: In vitro organoid growth assay (CellTiter-Glo 3D), T031P; type: cell-based, human; conditions: Homo sapiens, 72 h, treated 3 days post-plating
Method: as §3, §1, §2

[9] = system: plaque psoriasis patients; conditions: cited from earlier work
[10] = system: KP/C pancreatic tumors in C57Bl/6 mice; test: In vivo tumor growth suppression, KP/C mouse model; conditions: single agent vs vehicle; 28 days of dosing
Method: Pancreatic tumor chunks from KP/C mice [20] on C57Bl/6 background were inoculated subcutaneously in the flank of syngeneic mice. […] Tumor volumes and body weight were measured twice each week.
To test whether inhibition of RORγt can lead to tumor growth inhibition we utilized the Kras^G12D/+/Trp53^null/Pdx1-cre (KP/C) mouse model of pancreatic cancer [20]. C57Bl/6 mice were inoculated in the flank with KP/C tumor chunks and enrolled in the study when the average tumor volume reached 200 mm^3. […] To evaluate target engagement, we examined changes in expression of a subset of potential RORγt target genes in tumor samples.

With `O=C(O)[C@@H]1CCN(c2nn(C(=O)c3c(Cl)cccc3C(F)(F)F)c3cccc(F)c23)C[C@H]1O` [Compound 1] as the molecule, how does the ear thickness ([1]; day 4, 45 mg/kg PO) read?
Its ear thickness is 0.17 ± 0.02 mm.

And the ear thickness ([1]; day 4, 75 mg/kg PO)?
Its ear thickness is 0.16 ± 0.008 mm.

And the “Th17-cytokine gene expression (Il17a, Il17f, Il22) in ear skin” value ([1]; day 4, all dose levels tested (30, 45, 75 mg/kg PO))?
Its value is “reduced Th17-cytokine gene expression at all dose levels tested”.

What about the “IMQ-induced IL-17A cytokine production in ear tissues” value ([1]; ear tissue floats cultured 24 hours ex vivo, Luminex) of the same molecule?
The value was “reduced IMQ-induced IL-17A cytokine production”.

And the “Bclxl expression in the thymus” value [2]?
Its value is “modulation of Bclxl expression in the thymus”.

For `O=C(O)[C@@H]1CCC(c2nn(C(=O)c3c(Cl)cccc3C3CC3)c3cccc(F)c23)=C[C@H]1O` [Compound 2], which “Th17-dependent gene expression and inflammation” value ([1]; oral administration, S4 Fig) is on record?
Its value is “inhibition of Th17-dependent gene expression and inflammation”.

What about the “Bclxl expression in the thymus” value [2] of the same molecule?
The value was “modulation of Bclxl expression in the thymus”.

Which disease onset ([3]; vehicle day 12) does the source give for `CCCCCCCCc1ccc(CCC(N)(CO)CO)cc1` [FTY720, reference compound] here?
The disease onset was 20 days.

What about the “EAE clinical score (0-5)” value ([3]; vehicle peak 3.08 ± 0.28) of the same molecule?
Its value is 0.54 ± 0.234.

For `CCOc1cc([C@@H](CS(C)(=O)=O)N2C(=O)c3cccc(NC(C)=O)c3C2=O)ccc1OC` [Otezla], which “reduction of production of IL-17A, IL-17F, IL-22 and TNFα” value ([4]; Week 4) is on record?
Its value is 40–50%.

And the PASI-75 response rate ([4]; Week 16)?
The PASI-75 response rate was “approximately 30%”.

What does the source list for `OC(c1ccc(-c2ccc(CN3CCN(Cc4ccncc4)CC3)cc2)c(F)c1)(C(F)(F)F)C(F)(F)F` [SR2211, reference compound]?
IC50 [5]: ~1000 nM; IC50 [6]: ~3000 nM; human and mouse xenograft tumor growth [7]: sufficient to inhibit; IC50 [8]: ~3000 nM

With `CCS(=O)(=O)c1ccc(CNC(=O)c2cnc3c(c2)CN(C[C@H]2CC[C@H](C(F)(F)F)CC2)[C@H]3C(C)C)nc1` [VTP-43742] as the molecule, how does the PASI-75 response rate ([9]; Week 4) read?
Its PASI-75 response rate is 25–30%.

And the “reduction in IL-17A and IL-17F levels in plasma” value [9]?
The value was 50–75%.

Which tumor volume [10] does the source give for `N.N.[Cl][Pt][Cl]` [cisplatin, reference compound] here?
Its tumor volume is “significantly reduced”.
